# US7612087B2, “Heterocyclic compounds as inhibitors of beta-lactamases” (Novexel, priority 2002, dated 2009)
# Counter-ions that a name gives are not always drawn.
# What was measured:
# β-lactamase P99 = molecular target: T1, β-lactamase P99 (Enterobacter cloacae, UniProt P05364); experiment: biochemical
# T1 construct: The β-lactamases are isolated from bacterial strains which are resistant to penicillins and cephalosporins; endogenous in cells; host or cells: Enterobacter cloacae 293HT6 (natural producer; French-press lysate, 100,000 g supernatant)
# Method in brief: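 P99 β-lactamase, taken from the soluble fraction of an Enterobacter cloacae 293HT6 lysate, was assayed at 37° C. in 50 mM sodium phosphate buffer pH7.0 with 100 μM Nitrocefin as the chromogenic substrate. Hydrolysis was followed kinetically at 485 nm at initial speed, with and without a 5 mn enzyme–inhibitor preincubation. Inhibitors were tested at 6 or 8 concentrations in duplicate, and IC50 was fitted with GraFit.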
# [1] = system: S. aureus 011GO66 (PeniR); experiment: MIC, micro-dilution in liquid medium, β-lactamine with product at 5 mg/l; type: cell-based; settings: compound at 5 mg/l, 24 hours at 37° C.
# Method in brief: (§1)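 Broth micro-dilution MIC of a β-lactamine series, each dilution containing a fixed 5 mg/l of test product. Inoculated plates incubated 24 h at 37 °C. MIC in mg/l taken as lowest concentration without visible bacterial growth.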
# E. coli 250HT26 (SHV1) = experiment: as above; type: cell-based; settings: compound at 5 mg/l, 24 hours at 37° C.
# Method in brief: as §1
# [2] = system: E. coli 250HT23 (Class D); experiment: as above; type: cell-based; settings: compound at 5 mg/l, 24 hours at 37° C.
# Method in brief: as §1
# [3] = system: P. aeruginosa 391HT7 (PSE); experiment: as above; type: cell-based; settings: compound at 5 mg/l, 24 hours at 37° C.
# Method in brief: as §1
# E. coli 250BE1 (SHV4) = experiment: as above; type: cell-based; settings: compound at 5 mg/l, 24 hours at 37° C.
# Method in brief: as §1
# E. coli 250SJ1 (Tem7) = experiment: as above; type: cell-based; settings: compound at 5 mg/l, 24 hours at 37° C.
# Method in brief: as §1
# Serratia 301HT6 = experiment: as above; type: cell-based; settings: compound at 5 mg/l; Trial 10, 301HT6 Serratia; 24 hours at 37° C.
# Method in brief: as §1
# E. coli 250HT21 (Tem1) = experiment: as above; type: cell-based; settings: compound at 5 mg/l, 24 hours at 37° C.
# Method in brief: as §1
# [4] = system: P. aeruginosa 391HT8 (PSE); experiment: as above; type: cell-based; settings: compound at 5 mg/l, 24 hours at 37° C.
# Method in brief: as §1
# E. coli 250HT22 (Tem2) = experiment: as above; type: cell-based; settings: compound at 5 mg/l, 24 hours at 37° C.
# Method in brief: as §1
# [5] = system: E. cloacae 293HT6 (Class C); experiment: as above; type: cell-based; settings: compound at 5 mg/l, 24 hours at 37° C.
# Method in brief: as §1
# E. coli 250CF1 (Tem3) = experiment: microbe, parasite or virus in culture; type: cell-based; settings: compound at 5 mg/l, 24 hours at 37° C.
# Method in brief: as §1
# β-lactamase TEM1 = molecular target: T2, β-lactamase TEM1 (Escherichia coli, UniProt P62593); experiment: Inhibition of isolated β-lactamase Tem-1 (Nitrocefin hydrolysis); type: biochemical, E.coli 250HT21; settings: 100 μM Nitrocefin, 50 mM sodium phosphate buffer pH7.0, 37° C.
# T2 construct: The β-lactamases are isolated from bacterial strains which are resistant to penicillins and cephalosporins; endogenous in cells; host or cells: E. coli 250HT21 (natural producer; French-press lysate, 100,000 g supernatant)
# Method in brief: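 TEM-1 from soluble extract of E. coli 250HT21, normalized enzyme, 100 μM Nitrocefin in 50 mM sodium phosphate pH 7.0 at 37 °C. Initial-rate hydrolysis read kinetically at 485 nm, with and without 5 min enzyme–inhibitor preincubation. CI50 from 6 or 8 concentrations in duplicate.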
# T2 sequence (P62593 24-286 limits assumed): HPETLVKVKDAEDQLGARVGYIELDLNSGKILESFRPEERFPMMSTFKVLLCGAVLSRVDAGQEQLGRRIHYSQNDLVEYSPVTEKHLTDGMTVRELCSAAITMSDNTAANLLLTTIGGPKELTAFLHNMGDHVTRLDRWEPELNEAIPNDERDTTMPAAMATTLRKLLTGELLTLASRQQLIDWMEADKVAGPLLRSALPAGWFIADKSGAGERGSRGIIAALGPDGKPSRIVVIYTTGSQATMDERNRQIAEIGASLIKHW
# T1 sequence (P05364 21-381): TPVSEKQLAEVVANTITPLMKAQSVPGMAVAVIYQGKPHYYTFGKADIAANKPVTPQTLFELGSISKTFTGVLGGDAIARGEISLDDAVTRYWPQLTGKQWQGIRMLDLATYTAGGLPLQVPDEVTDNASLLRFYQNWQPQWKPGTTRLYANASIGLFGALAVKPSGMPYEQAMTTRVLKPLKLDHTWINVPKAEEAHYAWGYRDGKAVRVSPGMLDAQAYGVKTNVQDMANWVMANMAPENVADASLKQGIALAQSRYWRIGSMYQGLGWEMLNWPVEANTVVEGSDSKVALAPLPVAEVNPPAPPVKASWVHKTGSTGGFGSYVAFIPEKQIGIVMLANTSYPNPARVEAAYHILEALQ
smiles,measurement,setting,value
"NC(=O)COC(=O)C1CCC2CN1C(=O)N2OS(=O)(=O)O (stereo not drawn) [Example 48, sodium salt of trans 2-amino-2-oxoethyl 7-oxo-6-(sulphooxy)-1,6-diazabicyclo[3.2.1]octane-2-carboxylate]",IC50,β-lactamase P99,120 nM
same,MIC of Cefotaxime in combination with the compound,"[1]; Trial 1, 011GO66 S. aureus PeniR",2.5 µg/mL
same,MIC of Piperacillin in combination with the compound,"[1]; Trial 1, 011GO66 peniR",1.2 µg/mL
same,MIC of Cefotaxime in combination with the compound,"E. coli 250HT26 (SHV1); Trial 6, 250HT26 E. coli SHV1",<=0.04 μg/ml
same,MIC of Piperacillin in combination with the compound,"E. coli 250HT26 (SHV1); Trial 6, 250HT26 SHV1",1.2 µg/mL
same,MIC of Piperacillin in combination with the compound,"[2]; Trial 8, 250HT23 Class D",5 µg/mL
same,MIC of Cefotaxime in combination with the compound,"[2]; Trial 8, 250HT23 E. coli Class D",<=0.04 μg/ml
same,MIC of Cefotaxime in combination with the compound,"[3]; Trial 11, 391HT7 P. aeruginosa PSE",40 µg/mL
same,MIC of Piperacillin in combination with the compound,"[3]; Trial 11, 391HT7 PSE",>40 µg/mL
same,MIC of Cefotaxime in combination with the compound,"E. coli 250BE1 (SHV4); Trial 7, 250BE1 E. coli SHV4",0.08 µg/mL
same,MIC of Piperacillin in combination with the compound,"E. coli 250BE1 (SHV4); Trial 7, 250BE1 SHV4",2.5 µg/mL
same,MIC of Cefotaxime in combination with the compound,"E. coli 250SJ1 (Tem7); Trial 5, 250SJ1 E. coli Tem7",<=0.04 μg/ml
same,MIC of Piperacillin in combination with the compound,"E. coli 250SJ1 (Tem7); Trial 5, 250SJ1 Tem7",1.2 µg/mL
same,MIC of Cefotaxime in combination with the compound,Serratia 301HT6,<=0.04 μg/ml
same,MIC of Piperacillin in combination with the compound,Serratia 301HT6,0.6 µg/mL
same,MIC of Cefotaxime in combination with the compound,"E. coli 250HT21 (Tem1); Trial 2, 250HT21 E. coli Tem1",<=0.04 μg/ml
same,MIC of Piperacillin in combination with the compound,"E. coli 250HT21 (Tem1); Trial 2, 250HT21 Tem1",0.6 µg/mL
same,MIC of Cefotaxime in combination with the compound,"[4]; Trial 12, 391HT8 P. aeruginosa PSE",>40 µg/mL
same,MIC of Piperacillin in combination with the compound,"[4]; Trial 12, 391HT8 PSE",>40 µg/mL
same,MIC of Cefotaxime in combination with the compound,"E. coli 250HT22 (Tem2); Trial 3, 250HT22 E. coli Tem2",<=0.04 μg/ml
same,MIC of Piperacillin in combination with the compound,"E. coli 250HT22 (Tem2); Trial 3, 250HT22 Tem2",2.5 µg/mL
same,MIC of Piperacillin in combination with the compound,"[5]; Trial 9, 293HT6 Class",2.5 µg/mL
same,MIC of Cefotaxime in combination with the compound,"[5]; Trial 9, 293HT6 E. cloacae Class C",0.15 µg/mL
same,MIC of Cefotaxime in combination with the compound,"E. coli 250CF1 (Tem3); Trial 4, 250CF1 E. coli Tem3",<=0.04 μg/ml
same,MIC of Piperacillin in combination with the compound,"E. coli 250CF1 (Tem3); Trial 4, 250CF1 Tem3",1.2 µg/mL
same,IC50,β-lactamase TEM1,15 nM
